Data: patent publication US5210239A, “Ouinone derivatives and pharmacological use” (Eisai Co., Ltd., priority 1989, dated 1993)
Where two headings read alike, the source gives them in different places.

Columns and labels:
[1] = tested on: rat D-galactosamine (GalN)-induced acute hepatitis model; experiment: rat D-galactosamine (GalN)-induced acute hepatitis model; assay type: in vivo, Fischer (F 344) male rat; conditions: 300 mg/kg GalN s.c., compound 100 mg/kg oral 1 hr after GalN, blood 48 hr after GalN
Protocol: 300 mg/kg of GalN was subcutaneously injected into a Fischer (F 344) male rat(s) (around 180 g) to induce acute hepatitis. Each test compound was suspended in a 0.5% aqueous methylcellulose solution and orally administered at a dose of 100 mg/kg one hr after the injection of GalN.
Blood was sampled from the tail of the rat 48 hr after the injection of GalN. The blood clotting time was measured by Hepaplastin test (HPT), and at the same time GPT activity in the plasma was measured enzymatically.

[2] = tested on: mouse propionibactrium acnes (P. acnes)-lipopolysaccharide (LPS)-induced fulminant hepatitis model; experiment: mouse P. acnes-lipopolysaccharide (LPS)-induced fulminant hepatitis model; assay type: in vivo, male Balb/c mice; conditions: for responders at 100 mg/kg: Cutibacterium acnes, po, 24 h, read-out: Survival rate (%), test compd. group
Protocol: One mg/mouse of heat-killed P. acnes was intravenously injected into a five-week-old male Balb/c mice and LPS was additionally intravenously injected at a dose of 1 microgram/mouse 7 days after the injection of P.acnes to induce fulminant hepatitis. Each test compound was suspended in a 0.5% methylcellulose solution and orally administered at a dose of 100 mg/kg 30 min before the intravenous injection of LPS.
Survival rates and GPT activity in plasma of the survivors were determined in 24 hours after the intravenous injection of LPS. The mice treated with each test compound against the lethality and hepatic injury induced with P. acnes-LPS are shown in Table 2.

[3] = Toxicity test, one week oral administration; assay type: in vivo; design: dose or concentration left out as unconfirmed; conditions: seven-week male SD rat
[4] = read-out: Percentage inhibition (%) GPT (plasma GPT activity)
[5] = read-out: Percentage inhibition (%) HPT (blood clotting time, Hepaplastin test)
[6] = plasma GPT of survivors 24 hours after LPS, 100 mg/kg oral, value is test group

## COC1=C(/C=C(\CC2CCCCC2)C(=O)O)C(=O)C(OC)=C(OC)C1=O [compound 149]
[1]; [4]
  inhibition in vivo at 100 mg/kg: 93%
[1]; [5]
  inhibition in vivo at 100 mg/kg: 95%
[2]
  responders at 100 mg/kg: 67%
[2]; [6]
  GPT (survival rate), test compd. group (%) [part 1]: 209 ± 66%

## COC1=C(OC)C(=O)C(/C=C(\Cc2cccs2)C(=O)O)=C(C)C1=O [compound 217]
[1]; [4]
  inhibition in vivo at 100 mg/kg: 97%
[1]; [5]
  inhibition in vivo at 100 mg/kg: 99%
[2]
  responders at 100 mg/kg: 80%

## CCCCCCCCC/C(=C\C1=C(C)C(=O)C(OC)=C(OC)C1=O)C(=O)O [Example 4, (E)-3-[5-(2,3-Dimethoxy-6-methyl-1,4-benzoquinoyl)]-2-nonyl-2-propenoic acid]
[1]; [4]
  inhibition in vivo at 100 mg/kg: 91%
[1]; [5]
  inhibition in vivo at 100 mg/kg: 87%
[2]
  responders at 100 mg/kg: 64%
[2]; [6]
  GPT (survival rate), test compd. group (%) [part 1]: 358 ± 40%
[3]
  death: no compound was found to cause death

## COC1=C(/C=C(\CCC(C)C)C(=O)O)C(=O)C(OC)=C(OC)C1=O [compound 137]
[1]; [4]
  inhibition in vivo at 100 mg/kg: 77%
[1]; [5]
  inhibition in vivo at 100 mg/kg: 73%
[2]
  responders at 100 mg/kg: 30%
[3]
  death: no compound was found to cause death

## CCCCC/C(=C\c1c(C)c(O)c(OCC)c(OCC)c1OCC)C(=O)O [compound 20]
[1]; [4]
  inhibition in vivo at 100 mg/kg: 68%
[1]; [5]
  inhibition in vivo at 100 mg/kg: 68%
[2]
  responders at 100 mg/kg: 70%
[2]; [6]
  GPT (survival rate), test compd. group (%) [part 1]: 293 ± 65%

## CCOc1c(O)c(C)c(/C=C(\Cc2ccccc2)C(=O)O)c(OCC)c1OCC [compound 79]
[1]; [4]
  inhibition in vivo at 100 mg/kg: 94%
[1]; [5]
  inhibition in vivo at 100 mg/kg: 89%
[2]
  responders at 100 mg/kg: 50%
[2]; [6]
  GPT (survival rate), test compd. group (%) [part 1]: 1009 ± 196%

## CCCCCCCCC/C(=C\c1c(C)c(O)c(OC)c(OC)c1O)C(=O)O [compound 127]
[1]; [4]
  inhibition in vivo at 100 mg/kg: 60%
[1]; [5]
  inhibition in vivo at 100 mg/kg: 71%

## CCOC1=C(OCC)C(=O)C(/C=C(\CC2CCCCC2)C(=O)O)=C(C)C1=O [compound 144]
[1]; [4]
  inhibition in vivo at 100 mg/kg: 78%
[1]; [5]
  inhibition in vivo at 100 mg/kg: 79%
[2]
  responders at 100 mg/kg: 100%
[2]; [6]
  GPT (survival rate), test compd. group (%) [part 1]: 280 ± 31%

## COC1=C(OC)C(=O)C(/C=C(\CCCSC)C(=O)O)=C(C)C1=O [compound 183]
[1]; [4]
  inhibition in vivo at 100 mg/kg: 86%
[1]; [5]
  inhibition in vivo at 100 mg/kg: 80%
[2]
  responders at 100 mg/kg: 22%

## COC1=C(OC)C(=O)C(/C=C(\CC2CCCCC2)C(=O)O)=C(C)C1=O [compound 141]
[1]; [4]
  inhibition in vivo at 100 mg/kg: 100%
[1]; [5]
  inhibition in vivo at 100 mg/kg: 98%
[2]
  responders at 100 mg/kg: 25%

## COC1=C(OC)C(=O)C(/C=C(\CCCCC#N)C(=O)O)=C(C)C1=O [compound 176]
[1]; [4]
  inhibition in vivo at 100 mg/kg: 96%
[1]; [5]
  inhibition in vivo at 100 mg/kg: 97%
[2]
  responders at 100 mg/kg: 80%
[2]; [6]
  GPT (Ku/ml), test compd. group [part 2]: 297 ± 50 Ku/ml

## COc1c(O)c(C)c(/C=C(\C(=O)O)c2ccccc2)c(OC)c1OC [Example 14, (Z)-3-[5-(1-Hydroxy-6-methyl-2,3,4-trimethoxy)phenyl]-2-phenyl-2-propenoic acid]
[1]; [4]
  inhibition in vivo at 100 mg/kg: 78%
[1]; [5]
  inhibition in vivo at 100 mg/kg: 76%
[2]
  responders at 100 mg/kg: 100%
[2]; [6]
  GPT (survival rate), test compd. group (%) [part 1]: 297 ± 50%

## CCOC1=C(OC)C(=O)C(C)=C(/C=C(\CCC(C)C)C(=O)O)C1=O [compound 135]
[1]; [4]
  inhibition in vivo at 100 mg/kg: 52%
[1]; [5]
  inhibition in vivo at 100 mg/kg: 51%
[2]
  responders at 100 mg/kg: 50%

## CCOC1=C(OC)C(=O)C(C)=C(/C=C(\CC2CCCCC2)C(=O)O)C1=O [compound 142]
[1]; [4]
  inhibition in vivo at 100 mg/kg: 76%
[1]; [5]
  inhibition in vivo at 100 mg/kg: 67%
[2]
  responders at 100 mg/kg: 100%
[2]; [6]
  GPT (survival rate), test compd. group (%) [part 1]: 381 ± 19%
[3]
  death: no compound was found to cause death
